This is an account of results in BindingDB's records for patent US20250115591 (Inflazome, 2025).

The experiment deals with NACHT, LRR and PYD domains-containing protein 3 (Homo sapiens, UniProt Q96P20). Nature of the experiment: THP-1 Cells Pyroptosis Assay. As to the method: 1. Seed THP-1 cells (25,000 cells/well) containing 1.0 μg/ml LPS in 40μ of RPMI medium (without FBS) in 96-well, black walled, clear bottom cell culture plates coated with poly-D-lysine (VWR #734-0317)2. Add 5 μl compound (8 points half-log dilution, with […]) or vehicle (DMSO 0.1% FAC) to the appropriate wells3. Incubate for 3 hrs at 37° C. and 5% CO24. Add 5 μl nigericin (Sigma #N7143) (FAC 5 μM) to all wells5. Incubate for 1 hr at 37° C. and 5% CO26. At the end of the incubation period, spin plates at 300×g for 3 mins and remove supernatant7. Then add 50 μl of resazurin (Sigma #R7017) (FAC 100 μM resazurin in RPMI medium without FBS) and incubate plates for a further 1-2 hrs at 37° C. and 5% CO28. Plates were read in an Envision reader at Ex 560 nm and Em 590 nm9. IC50 data is fitted to a non-linear regression equation (log inhibitor vs response-variable slope 4-parameters)
Sequence of NACHT, LRR and PYD domains-containing protein 3 (Q96P20 whole entry, the tested form may be a part): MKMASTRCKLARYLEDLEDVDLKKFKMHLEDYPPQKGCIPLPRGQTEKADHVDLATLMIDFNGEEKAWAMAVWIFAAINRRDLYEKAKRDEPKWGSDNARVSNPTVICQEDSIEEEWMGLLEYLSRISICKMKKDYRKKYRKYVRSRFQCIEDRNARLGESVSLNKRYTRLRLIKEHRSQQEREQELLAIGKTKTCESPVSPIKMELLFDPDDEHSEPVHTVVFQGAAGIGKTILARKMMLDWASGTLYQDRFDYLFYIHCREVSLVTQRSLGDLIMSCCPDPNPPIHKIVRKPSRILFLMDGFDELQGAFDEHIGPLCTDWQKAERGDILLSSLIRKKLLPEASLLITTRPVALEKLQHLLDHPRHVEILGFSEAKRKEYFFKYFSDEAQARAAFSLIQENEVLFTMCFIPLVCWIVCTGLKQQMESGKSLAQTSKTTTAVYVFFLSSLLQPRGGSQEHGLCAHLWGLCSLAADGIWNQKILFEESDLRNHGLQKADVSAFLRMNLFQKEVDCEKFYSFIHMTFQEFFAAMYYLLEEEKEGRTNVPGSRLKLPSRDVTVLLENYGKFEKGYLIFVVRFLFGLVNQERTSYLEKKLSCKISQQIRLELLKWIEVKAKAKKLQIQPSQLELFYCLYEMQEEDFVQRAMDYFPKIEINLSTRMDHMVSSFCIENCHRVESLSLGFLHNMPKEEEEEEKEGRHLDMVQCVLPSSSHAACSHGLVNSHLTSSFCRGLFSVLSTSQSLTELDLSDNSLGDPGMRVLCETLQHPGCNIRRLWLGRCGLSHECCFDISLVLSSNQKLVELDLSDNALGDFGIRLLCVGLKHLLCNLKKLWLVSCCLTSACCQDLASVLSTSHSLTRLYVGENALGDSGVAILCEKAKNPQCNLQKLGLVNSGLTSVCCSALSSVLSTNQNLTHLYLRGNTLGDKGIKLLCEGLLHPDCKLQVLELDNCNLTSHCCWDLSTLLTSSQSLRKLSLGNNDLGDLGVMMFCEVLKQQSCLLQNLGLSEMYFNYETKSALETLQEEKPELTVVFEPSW
In general, IC50 refers to the concentration at which inhibition is half-maximal. Read a high IC50 as weaker potency in that assay. `CC(=O)N1CCC(S(=O)(=O)NC(=O)Nc2c3c(cc4c2CCC4)CCC3)CC1` [US20250115591, Example 3] registered an IC50 of less than 10 µM. In the case of `Cn1cc(S(=O)(=O)NC(=O)Nc2c3c(cc4c2CCC4)CCC3)c(=O)n(C)c1=O` [US20250115591, Example 16] it was less than 10 µM. `CCCCCCn1cc(S(=O)(=O)NC(=O)Nc2c3c(cc4c2CCC4)CCC3)c(=O)[nH]c1=O` [US20250115591, Example 17] returned an IC50 of less than 10 µM. Turning to `O=C(Nc1c2c(cc3c1CCC3)CCC2)NS(=O)(=O)C1CN(C2CCC2)C1` [US20250115591, Example 18], the IC50 is less than 1 µM. In turn, `CN(C)C(=O)CN1CC(S(=O)(=O)NC(=O)Nc2c3c(cc4c2CCC4)CCC3)C1` [US20250115591, Example 21] yielded an IC50 of less than 10 µM. In the case of `CCNC(=O)N1CCC(S(=O)(=O)NC(=O)Nc2c3c(cc4c2CCC4)CCC3)CC1` [US20250115591, Example 26] it was less than 10 µM; in that of `CNC(=O)N1CCC(S(=O)(=O)NC(=O)Nc2c3c(cc4c2CCC4)CCC3)CC1` [US20250115591, Example 28], less than 10 µM. In the case of `CCNC(=O)N1CCC(S(=O)(=O)NC(=O)Nc2c3c(cc4c2CCC4)CCC3)C1` (stereo unspecified) [US20250115591, Example 30] it was less than 10 µM; in that of `CC(C)NC(=O)N1CCCC(S(=O)(=O)NC(=O)Nc2c3c(cc4c2CCC4)CCC3)C1` (stereo unspecified) [US20250115591, Example 33], less than 10 µM. The same measure for `CCN1CCC(S(=O)(=O)NC(=O)Nc2c3c(cc4c2CCC4)CCC3)C1` (stereo unspecified) [US20250115591, Example 37]: less than 1 µM; for `CC(=O)N1CCC(S(=O)(=O)NC(=O)Nc2c3c(cc4c2CCC4)CCC3)C1` (stereo unspecified) [US20250115591, Example 38]: less than 10 µM.

In the case of `O=C(Nc1c2c(cc3c1CCC3)CCC2)NS(=O)(=O)C1CNC1` [US20250115591, Example 42], the IC50 is less than 10 µM.

The compound `CC(C)N1[C@@H]2CC[C@H]1C[C@@H](S(=O)(=O)NC(=O)Nc1c3c(cc4c1CCC4)CCC3)C2` [US20250115591, Example 45] yielded an IC50 of less than 1 µM. In the case of `CCN1[C@@H]2CC[C@H]1C[C@@H](S(=O)(=O)NC(=O)Nc1c3c(cc4c1CCC4)CCC3)C2` [US20250115591, Example 52] it was less than 10 µM; in that of `O=C(Nc1c2c(cc3c1CCC3)CCC2)NS(=O)(=O)C1CCNC1` (stereo unspecified) [US20250115591, Example 55], less than 10 µM; in that of `CC(=O)N1CCCC(S(=O)(=O)NC(=O)Nc2c3c(cc4c2CCC4)CCC3)C1` (stereo unspecified) [US20250115591, Example 56], less than 10 µM. The same measure for `CC(C)N1[C@@H]2CC[C@H]1C[C@H](S(=O)(=O)NC(=O)Nc1c3c(cc4c1CCC4)CCC3)C2` [US20250115591, Example 69]: less than 1 µM; for `CCN1[C@@H]2CC[C@H]1C[C@H](S(=O)(=O)NC(=O)Nc1c3c(cc4c1CCC4)CCC3)C2` [US20250115591, Example 70]: less than 1 µM; for `CC(=O)N1CC(S(=O)(=O)NC(=O)Nc2c3c(cc4c2CCC4)CCC3)C1` [US20250115591, Example 74]: less than 10 µM.

As for `COC(=O)CN1CC(S(=O)(=O)NC(=O)Nc2c3c(cc4c2CCC4)CCC3)C1` [US20250115591, Example 78], the IC50 was less than 10 µM. `CCC(C)N1CCC(S(=O)(=O)NC(=O)Nc2c3c(cc4c2CCC4)CCC3)C1` (stereo unspecified) [US20250115591, Example 82] showed an IC50 of less than 10 µM. In the case of `CCCCN1CC(S(=O)(=O)NC(=O)Nc2c3c(cc4c2CCC4)CCC3)C1` [US20250115591, Example 83] it was less than 10 µM; in that of `O=C(Nc1c2c(cc3c1CCC3)CCC2)NS(=O)(=O)C1CN(C2CC2)C1` [US20250115591, Example 85], less than 1 µM; in that of `N#CCN1CC(S(=O)(=O)NC(=O)Nc2c3c(cc4c2CCC4)CCC3)C1` [US20250115591, Example 87], less than 10 µM. Take `CC(C)(C)N1CC(S(=O)(=O)NC(=O)Nc2c3c(cc4c2CCC4)CCC3)C1` [US20250115591, Example 93]: the 50% inhibitory concentration (IC50) was less than 1 µM. Compound `O=C(Nc1c2c(cc3c1CCC3)CCC2)NS(=O)(=O)C1CN(C2CCCCC2)C1` [US20250115591, Example 98] yielded an IC50 of less than 1 µM. The same measure for `O=C(Nc1c2c(cc3c1CCC3)CCC2)NS(=O)(=O)C1CN(C2CCCC2)C1` [US20250115591, Example 99]: less than 1 µM; for `CC(C)(C)OC(=O)N1CC(N2CC(S(=O)(=O)NC(=O)Nc3c4c(cc5c3CCC5)CCC4)C2)C1` [US20250115591, Example 106]: less than 10 µM. In the case of `CC(C)(C)OC(=O)/N=C(/NC(=O)OC(C)(C)C)N1CC(S(=O)(=O)NC(=O)Nc2c3c(cc4c2CCC4)CCC3)C1` [US20250115591, Example 112] it was less than 10 µM; in that of `N=C(N)N1CC(S(=O)(=O)NC(=O)Nc2c3c(cc4c2CCC4)CCC3)C1` [US20250115591, Example 113], less than 1 µM. `O=C(Nc1c2c(cc3c1CCC3)CCC2)NS(=O)(=O)C1CN(C2CNC2)C1` [US20250115591, Example 114] yielded an IC50 of less than 10 µM.

In turn, `CN(C(=O)OC(C)(C)C)/C(=N\C(=O)OC(C)(C)C)N1CC(S(=O)(=O)NC(=O)Nc2c3c(cc4c2CCC4)CCC3)C1` [US20250115591, Example 127] had an IC50 of less than 10 µM.

As to `CNC(=N)N1CC(S(=O)(=O)NC(=O)Nc2c3c(cc4c2CCC4)CCC3)C1` [US20250115591, Example 129], the IC50 is less than 10 µM. Regarding `C=CCN1CC(S(=O)(=O)NC(=O)Nc2c3c(cc4c2CCC4)CCC3)C1` [US20250115591, Example 132], the IC50 is less than 1 µM. The compound `CCC(C)N1CC(S(=O)(=O)NC(=O)Nc2c(C(C)C)cc(F)cc2C(C)C)C1` (stereo unspecified) [US20250115591, Example 143] yielded an IC50 of less than 10 µM. On to `CN1CC(N2[C@@H]3CC[C@H]2C[C@@H](S(=O)(=O)NC(=O)Nc2c4c(cc5c2CCC5)CCC4)C3)C1` [US20250115591, Example 146], for which the IC50 was less than 10 µM. The same measure for `CC(C)N1CC(S(=O)(=O)NC(=O)Nc2c3c(cc4c2CCC4)CCC3)CC1C(=O)N(C)C` (stereo unspecified) [US20250115591, Example 148]: less than 10 µM. In the case of `COc1cc(-c2ccc3c(c2NC(=O)NS(=O)(=O)c2cn(C(C)C)c(=O)cn2)CCC3)ccn1` [US20250115591, Example 156] it was less than 1 µM. Turning to `C[C@@H](O)Cn1cc(S(=O)(=O)NC(=O)Nc2c3c(cc4c2CCC4)CCC3)ccc1=O` [US20250115591, Example 183], the half-inhibitory concentration (IC50) was less than 1 µM. Regarding `CCC(C)N1CC(S(=O)(=O)NC(=O)Nc2c(C(C)C)cc(Cl)cc2C(C)C)C1` (stereo unspecified) [US20250115591, Example 187], the IC50 was less than 10 µM.

In the case of `CCN1CCCC(S(=O)(=O)NC(=O)Nc2c3c(cc4c2CCC4)CCC3)CC1` (stereo unspecified) [US20250115591, Example 194], the IC50 is less than 1 µM.
